# According to ChEMBL document CHEMBL1201862, “PubChem BioAssay data set” (2004):
# Active and inactive are the calls of the source.
# What was measured:
# [1] = target: Eukaryotic translation initiation factor 4E (Mus musculus, UniProt P63073); test: blockers of eIF4G binding by eIF4E – biochemical, TR-FRET, dose response (AID 855); type: functional;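 note: potency for disrupting eIF4E binding to eIF4GI seen as loss of FRET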
# [2] = bead-based luminescence quenchers, dual-tagged ARNT – biochemical, AlphaScreen, cherry-pick, artefact control for ARNT-TACC3 interaction inhibitor project, dose response (AID 651705); type: functional;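 note: AlphaScreen bead proximity signal that flags compounds interfering with the detection technology; potency reflects signal decrease which marks the compound as an assay artifact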
# [3] = target: Induced myeloid leukemia cell differentiation protein Mcl-1 (Homo sapiens, UniProt Q07820); type: functional
# Induced myeloid leukemia cell differentiation protein Mcl-1, sequence (Q07820 whole entry): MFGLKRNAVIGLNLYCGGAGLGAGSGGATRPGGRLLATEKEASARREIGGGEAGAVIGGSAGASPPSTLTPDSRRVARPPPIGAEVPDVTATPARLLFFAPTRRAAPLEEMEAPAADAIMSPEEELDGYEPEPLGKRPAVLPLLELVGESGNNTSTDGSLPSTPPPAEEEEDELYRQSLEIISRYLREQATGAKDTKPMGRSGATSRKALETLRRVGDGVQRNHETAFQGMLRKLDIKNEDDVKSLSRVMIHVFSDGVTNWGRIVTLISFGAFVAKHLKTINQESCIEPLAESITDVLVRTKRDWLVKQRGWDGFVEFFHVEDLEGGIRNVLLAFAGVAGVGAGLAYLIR
# [4] = target: T1, Replicative DNA helicase DnaB (Mycobacterium tuberculosis, UniProt P9WMR3); test: DnaB intein splicing inhibitors, dose response, biochemical, cell-free fluorescence (AID 449749); type: functional
# T1 sequence (P9WMR3 whole entry): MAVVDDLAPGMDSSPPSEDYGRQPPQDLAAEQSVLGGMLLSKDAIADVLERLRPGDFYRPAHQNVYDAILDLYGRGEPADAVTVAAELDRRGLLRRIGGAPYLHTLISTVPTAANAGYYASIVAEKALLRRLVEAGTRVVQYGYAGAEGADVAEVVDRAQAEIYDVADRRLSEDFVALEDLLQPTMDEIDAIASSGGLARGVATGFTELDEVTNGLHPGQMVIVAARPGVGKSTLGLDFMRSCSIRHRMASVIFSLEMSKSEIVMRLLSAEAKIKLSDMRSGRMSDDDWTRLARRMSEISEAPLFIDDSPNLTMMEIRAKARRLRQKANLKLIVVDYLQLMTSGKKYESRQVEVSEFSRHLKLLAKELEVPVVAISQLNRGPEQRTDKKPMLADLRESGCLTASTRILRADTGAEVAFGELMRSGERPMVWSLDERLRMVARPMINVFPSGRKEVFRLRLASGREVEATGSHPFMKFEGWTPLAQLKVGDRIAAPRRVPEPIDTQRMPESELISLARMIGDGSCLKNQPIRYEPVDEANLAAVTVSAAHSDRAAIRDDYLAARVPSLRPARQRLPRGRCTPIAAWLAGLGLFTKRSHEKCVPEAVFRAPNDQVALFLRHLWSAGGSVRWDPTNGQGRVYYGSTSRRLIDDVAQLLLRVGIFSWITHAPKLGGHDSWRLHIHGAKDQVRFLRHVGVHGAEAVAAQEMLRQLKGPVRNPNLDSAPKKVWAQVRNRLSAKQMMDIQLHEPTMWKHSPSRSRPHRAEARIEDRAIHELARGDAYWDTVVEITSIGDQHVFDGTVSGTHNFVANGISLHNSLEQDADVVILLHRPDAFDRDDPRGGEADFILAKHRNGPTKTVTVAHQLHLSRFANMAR
# [5] = target: T2, Protein RecA (Mycobacterium tuberculosis, UniProt P9WHJ3); test: Fluorescence Cell-Free Homogeneous Dose Retest to Identify Inhibitors of RecA-Intein Splicing Activity. [Related pubchem assays (depositor defined):AID2097, AID2223, AID489010, AID492950]; type: functional
# T2 sequence (P9WHJ3 whole entry): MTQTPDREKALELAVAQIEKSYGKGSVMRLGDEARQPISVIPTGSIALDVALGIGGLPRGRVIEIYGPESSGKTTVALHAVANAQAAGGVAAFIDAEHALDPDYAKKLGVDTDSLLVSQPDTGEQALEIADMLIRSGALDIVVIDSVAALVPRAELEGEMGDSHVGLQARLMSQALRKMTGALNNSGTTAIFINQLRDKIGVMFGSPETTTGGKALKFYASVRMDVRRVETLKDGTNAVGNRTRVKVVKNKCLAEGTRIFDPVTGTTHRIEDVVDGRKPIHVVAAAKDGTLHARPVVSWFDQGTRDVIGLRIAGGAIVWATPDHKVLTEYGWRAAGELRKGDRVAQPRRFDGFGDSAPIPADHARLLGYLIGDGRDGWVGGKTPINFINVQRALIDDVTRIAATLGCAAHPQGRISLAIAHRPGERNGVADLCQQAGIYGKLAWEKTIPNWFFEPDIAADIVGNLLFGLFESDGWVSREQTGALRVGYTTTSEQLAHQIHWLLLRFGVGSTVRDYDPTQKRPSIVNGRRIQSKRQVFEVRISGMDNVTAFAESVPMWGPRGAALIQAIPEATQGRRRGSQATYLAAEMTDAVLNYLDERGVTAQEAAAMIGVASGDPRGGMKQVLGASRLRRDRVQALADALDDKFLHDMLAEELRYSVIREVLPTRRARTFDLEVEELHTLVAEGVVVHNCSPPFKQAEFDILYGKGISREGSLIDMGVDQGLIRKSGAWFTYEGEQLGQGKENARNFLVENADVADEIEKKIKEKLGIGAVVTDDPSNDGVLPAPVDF
# [6] = target: T3, Small ubiquitin-related modifier 2 (Homo sapiens, UniProt P61956); test: disruption of SUMO2 interaction with SIM peptide – biochemical, fluorescence polarization, uHTS hits, selectivity assay for SUMO1 interaction inhibitor project, dose response (AID 624385); type: functional; conditions: read-out: IC50_Mean
# T3 sequence (P61956 whole entry): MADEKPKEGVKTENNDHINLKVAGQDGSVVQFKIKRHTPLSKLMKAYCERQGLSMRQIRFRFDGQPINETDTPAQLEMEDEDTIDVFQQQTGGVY
# [7] = target: T4, Small ubiquitin-related modifier 1 (Homo sapiens, UniProt P63165); test: SUMO1 protein interaction blockers, potency – biochemical, fluorescence polarization, uHTS hits, dose response (AID 624382); type: functional; conditions: read-out: IC50_Mean
# T4 sequence (P63165 whole entry): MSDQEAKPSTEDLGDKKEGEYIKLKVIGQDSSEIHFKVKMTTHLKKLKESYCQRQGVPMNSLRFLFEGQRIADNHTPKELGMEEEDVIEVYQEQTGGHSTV
# [8] = target: T3, Small ubiquitin-related modifier 2; test: SUMO2 binding disruption by SUMO1 hits – biochemical, FRET, human SUMO2, uHTS hits, selectivity assay for SUMO1 interaction inhibitor project, dose response (AID 624384); type: functional; conditions: read-out: IC50_Mean
# [9] = target: T4, Small ubiquitin-related modifier 1; test: SUMO1 protein-protein binding blockers, potency – biochemical, FRET, dose response (AID 624383); type: functional; conditions: read-out: IC50_Mean
# [10] = target: Melanin-concentrating hormone receptor 1 (Homo sapiens, UniProt Q99705); test: Late-stage fluorescence-based counterscreen for antagonists of the G-protein coupled receptor 7 (GPR7): cell-based dose response assay to identify antagonists of the melanin-concentrating hormone receptor 1 (MCHR1) Set 6.; type: functional
# Melanin-concentrating hormone receptor 1, sequence (Q99705 whole entry): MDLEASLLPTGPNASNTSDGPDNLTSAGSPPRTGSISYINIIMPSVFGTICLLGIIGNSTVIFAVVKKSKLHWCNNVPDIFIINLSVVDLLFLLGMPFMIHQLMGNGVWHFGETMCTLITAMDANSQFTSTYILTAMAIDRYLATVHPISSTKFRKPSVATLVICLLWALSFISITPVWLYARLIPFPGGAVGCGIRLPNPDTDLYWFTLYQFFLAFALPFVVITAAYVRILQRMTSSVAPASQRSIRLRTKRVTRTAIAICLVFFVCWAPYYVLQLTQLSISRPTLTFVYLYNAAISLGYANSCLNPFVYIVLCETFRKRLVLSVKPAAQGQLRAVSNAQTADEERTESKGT
# [11] = target: T5, Neuropeptides B/W receptor type 1 (Homo sapiens, UniProt P48145); test: human NPBW1 receptor blockade, IC50 – cell-based, fluorescence, dose response, set 6, late-stage follow-up (AID 588583); type: functional
# T5 sequence (P48145 whole entry): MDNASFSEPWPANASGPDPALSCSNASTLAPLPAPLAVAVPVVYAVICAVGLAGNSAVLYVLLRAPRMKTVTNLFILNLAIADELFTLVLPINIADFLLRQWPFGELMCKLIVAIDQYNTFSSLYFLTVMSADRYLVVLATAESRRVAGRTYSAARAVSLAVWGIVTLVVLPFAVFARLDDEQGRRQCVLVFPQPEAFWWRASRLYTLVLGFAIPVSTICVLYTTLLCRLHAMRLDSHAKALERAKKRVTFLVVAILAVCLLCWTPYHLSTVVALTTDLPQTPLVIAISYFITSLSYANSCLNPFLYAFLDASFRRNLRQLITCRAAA
# [12] = target: DNA dC->dU-editing enzyme APOBEC-3A (Homo sapiens, UniProt P31941); test: Dose Response confirmation of small molecule APOBEC3A DNA Deaminase Inhibitors via a fluorescence-based single-stranded DNA deaminase assay. [Related pubchem assays (depositor defined):AID493011, AID493024]; type: functional
# DNA dC->dU-editing enzyme APOBEC-3A, sequence (P31941 whole entry): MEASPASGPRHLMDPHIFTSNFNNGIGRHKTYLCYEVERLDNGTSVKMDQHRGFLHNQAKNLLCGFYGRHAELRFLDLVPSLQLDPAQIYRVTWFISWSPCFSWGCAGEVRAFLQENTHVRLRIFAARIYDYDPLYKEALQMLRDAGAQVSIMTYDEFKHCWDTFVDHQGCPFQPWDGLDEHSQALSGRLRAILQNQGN
# [13] = target: DNA dC->dU-editing enzyme APOBEC-3G (Homo sapiens, UniProt Q9HC16); type: functional;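 note: Dose-response counterscreen measuring inhibition of APOBEC3G DNA deaminase activity, run while confirming APOBEC3A inhibitors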
# DNA dC->dU-editing enzyme APOBEC-3G, sequence (Q9HC16 whole entry): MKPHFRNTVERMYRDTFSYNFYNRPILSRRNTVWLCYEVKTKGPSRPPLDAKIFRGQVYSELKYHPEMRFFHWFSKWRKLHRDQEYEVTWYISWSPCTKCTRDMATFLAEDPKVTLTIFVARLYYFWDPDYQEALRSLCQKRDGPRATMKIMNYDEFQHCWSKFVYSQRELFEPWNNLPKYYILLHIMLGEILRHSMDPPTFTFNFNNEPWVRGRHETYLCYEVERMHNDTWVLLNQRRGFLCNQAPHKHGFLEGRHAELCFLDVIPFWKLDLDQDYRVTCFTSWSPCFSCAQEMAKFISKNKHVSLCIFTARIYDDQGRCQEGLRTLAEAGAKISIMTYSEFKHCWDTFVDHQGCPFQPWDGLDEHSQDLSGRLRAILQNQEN
# [14] = cytotoxicity toward MDA-MB-231 breast cancer cells – cell-based, CellTiter-Glo luminescence, cherry-pick, cytotoxicity control for RAD54 inhibitor project, dose response (AID 651692); type: functional
# [15] = target: T6, DNA repair and recombination protein RAD54-like (Homo sapiens, UniProt Q92698); test: RAD54 Holliday junction migration blockers – biochemical, fluorescence, cherry-picked samples, dose series, confirmation (AID 651657); type: functional
# T6 sequence (Q92698 whole entry): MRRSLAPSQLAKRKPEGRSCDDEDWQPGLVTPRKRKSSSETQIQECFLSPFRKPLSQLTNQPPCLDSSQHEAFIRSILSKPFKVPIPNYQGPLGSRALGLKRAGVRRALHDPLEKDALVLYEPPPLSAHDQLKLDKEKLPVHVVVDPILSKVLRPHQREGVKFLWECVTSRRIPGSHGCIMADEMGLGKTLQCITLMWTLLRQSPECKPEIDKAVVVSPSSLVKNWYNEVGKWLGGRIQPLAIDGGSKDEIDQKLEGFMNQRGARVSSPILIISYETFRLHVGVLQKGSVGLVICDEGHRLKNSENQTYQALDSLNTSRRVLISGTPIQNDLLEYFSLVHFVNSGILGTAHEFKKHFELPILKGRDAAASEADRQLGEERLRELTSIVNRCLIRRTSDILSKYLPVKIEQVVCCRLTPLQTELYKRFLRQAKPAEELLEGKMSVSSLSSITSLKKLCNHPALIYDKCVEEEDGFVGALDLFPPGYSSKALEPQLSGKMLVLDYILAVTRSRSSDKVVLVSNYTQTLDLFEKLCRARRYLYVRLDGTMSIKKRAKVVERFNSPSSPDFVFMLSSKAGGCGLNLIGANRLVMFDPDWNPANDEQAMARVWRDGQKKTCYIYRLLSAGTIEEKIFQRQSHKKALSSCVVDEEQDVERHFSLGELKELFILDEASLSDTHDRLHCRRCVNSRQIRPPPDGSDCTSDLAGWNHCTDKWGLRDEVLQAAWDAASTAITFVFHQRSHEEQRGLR
# [16] = target: T7, DNA repair protein RAD52 homolog (Homo sapiens, UniProt P43351); type: functional, biochemical
# T7 sequence (P43351 whole entry): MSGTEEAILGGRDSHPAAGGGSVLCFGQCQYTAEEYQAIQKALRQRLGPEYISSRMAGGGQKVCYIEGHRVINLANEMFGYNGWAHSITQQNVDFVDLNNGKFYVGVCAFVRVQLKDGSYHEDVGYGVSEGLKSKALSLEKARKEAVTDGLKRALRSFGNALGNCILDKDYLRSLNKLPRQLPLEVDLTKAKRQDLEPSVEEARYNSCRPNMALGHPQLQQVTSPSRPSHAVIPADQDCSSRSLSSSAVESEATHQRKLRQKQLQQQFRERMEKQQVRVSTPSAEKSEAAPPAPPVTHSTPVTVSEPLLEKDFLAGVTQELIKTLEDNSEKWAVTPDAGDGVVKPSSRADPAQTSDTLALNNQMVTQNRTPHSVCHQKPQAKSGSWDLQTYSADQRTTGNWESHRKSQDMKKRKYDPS
# [17] = target: Interleukin-8 (Homo sapiens, UniProt P10145); test: Dose Response confirmation of uHTS small molecule hits for cystic fibrosis induced NFkb Inhibitors in a PAF-induced IL8 counterscreen.; type: functional; conditions: read-out: IC50_Mean
# Interleukin-8, sequence (P10145 whole entry): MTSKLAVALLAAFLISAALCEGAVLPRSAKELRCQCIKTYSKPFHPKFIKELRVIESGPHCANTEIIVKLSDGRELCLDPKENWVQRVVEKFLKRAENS
# [18] = target: Ras and Rab interactor 1/Tyrosine-protein kinase ABL1 (Homo sapiens, UniProt P00519+Q13671); type: functional;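 note: biochemical TR-FRET dose-response test measuring inhibition of binding between Rin1 and Abl proteins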
# Ras and Rab interactor 1/Tyrosine-protein kinase ABL1, sequence (P00519 whole entry): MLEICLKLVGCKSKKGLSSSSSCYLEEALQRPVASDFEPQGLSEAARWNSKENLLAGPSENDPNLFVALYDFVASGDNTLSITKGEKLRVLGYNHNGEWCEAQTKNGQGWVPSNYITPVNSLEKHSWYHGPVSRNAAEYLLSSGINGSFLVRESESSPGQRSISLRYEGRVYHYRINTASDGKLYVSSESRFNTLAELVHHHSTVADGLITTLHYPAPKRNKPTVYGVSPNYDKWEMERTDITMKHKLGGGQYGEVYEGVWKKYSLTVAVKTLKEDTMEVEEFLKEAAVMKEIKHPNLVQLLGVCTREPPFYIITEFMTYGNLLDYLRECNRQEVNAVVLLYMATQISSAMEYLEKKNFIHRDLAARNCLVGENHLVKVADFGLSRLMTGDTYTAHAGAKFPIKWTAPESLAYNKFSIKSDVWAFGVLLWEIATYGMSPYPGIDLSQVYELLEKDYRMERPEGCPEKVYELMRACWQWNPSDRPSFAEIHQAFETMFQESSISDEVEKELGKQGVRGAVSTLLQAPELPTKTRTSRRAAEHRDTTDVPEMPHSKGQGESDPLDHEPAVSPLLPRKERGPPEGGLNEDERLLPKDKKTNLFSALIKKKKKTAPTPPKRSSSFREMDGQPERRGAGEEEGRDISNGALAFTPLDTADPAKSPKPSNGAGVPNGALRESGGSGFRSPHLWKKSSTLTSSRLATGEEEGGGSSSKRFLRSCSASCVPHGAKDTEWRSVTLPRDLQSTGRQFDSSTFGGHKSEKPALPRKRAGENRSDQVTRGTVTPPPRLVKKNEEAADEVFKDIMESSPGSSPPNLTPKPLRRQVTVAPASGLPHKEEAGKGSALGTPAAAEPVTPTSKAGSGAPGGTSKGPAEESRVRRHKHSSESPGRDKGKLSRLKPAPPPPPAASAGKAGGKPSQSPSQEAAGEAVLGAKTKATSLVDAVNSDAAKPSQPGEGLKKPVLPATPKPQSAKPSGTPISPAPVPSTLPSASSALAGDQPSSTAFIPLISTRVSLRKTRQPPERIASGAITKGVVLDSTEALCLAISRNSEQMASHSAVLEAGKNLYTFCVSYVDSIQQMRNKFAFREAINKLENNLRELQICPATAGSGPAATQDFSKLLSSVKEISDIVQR
# Ras and Rab interactor 1/Tyrosine-protein kinase ABL1, sequence (Q13671 whole entry): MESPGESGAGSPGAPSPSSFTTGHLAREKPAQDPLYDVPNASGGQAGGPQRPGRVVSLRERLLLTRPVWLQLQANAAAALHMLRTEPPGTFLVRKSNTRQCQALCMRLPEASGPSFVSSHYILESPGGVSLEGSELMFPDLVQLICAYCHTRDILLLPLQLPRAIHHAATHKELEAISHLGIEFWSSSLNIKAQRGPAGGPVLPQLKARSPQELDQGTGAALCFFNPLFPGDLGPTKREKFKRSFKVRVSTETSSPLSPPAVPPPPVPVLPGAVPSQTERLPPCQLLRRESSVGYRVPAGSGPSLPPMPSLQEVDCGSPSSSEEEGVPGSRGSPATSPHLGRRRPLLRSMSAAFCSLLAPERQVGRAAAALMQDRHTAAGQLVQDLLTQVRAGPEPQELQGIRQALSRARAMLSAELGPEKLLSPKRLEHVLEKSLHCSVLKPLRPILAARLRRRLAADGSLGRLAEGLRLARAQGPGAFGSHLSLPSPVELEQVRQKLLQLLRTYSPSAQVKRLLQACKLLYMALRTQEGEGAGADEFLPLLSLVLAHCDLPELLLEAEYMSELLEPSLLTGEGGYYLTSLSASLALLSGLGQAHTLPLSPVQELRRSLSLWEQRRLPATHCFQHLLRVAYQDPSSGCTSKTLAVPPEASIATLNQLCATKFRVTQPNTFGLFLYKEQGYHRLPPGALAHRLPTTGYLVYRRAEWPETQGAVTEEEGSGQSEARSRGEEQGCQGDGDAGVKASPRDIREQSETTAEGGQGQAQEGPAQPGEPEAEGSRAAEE
# Eukaryotic translation initiation factor 4E, sequence (P63073 whole entry): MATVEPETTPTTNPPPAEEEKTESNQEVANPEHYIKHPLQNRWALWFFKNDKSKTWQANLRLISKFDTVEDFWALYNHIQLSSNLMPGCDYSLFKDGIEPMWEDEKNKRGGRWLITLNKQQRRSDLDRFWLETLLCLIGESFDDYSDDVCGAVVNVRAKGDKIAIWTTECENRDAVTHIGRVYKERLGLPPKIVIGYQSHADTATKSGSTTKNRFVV
structure (smiles),measurement,setting,value
CC(C)(C)C1=Nn2c(nnc2-c2ccccn2)SC1,IC50,[1],> 64 µM (inactive)
same,AC50,[2],107 µM (active)
NC1=C2C(=O)c3ccccc3C(=O)C2=C(N)CC1,IC50,[3],1.8 µM (not active)
same,AC50,[4],11.3 µM (active)
same,EC50,[5],3.57 µM (active)
same,IC50,[6],10.5 µM (active)
same,IC50,[7],7.71 µM (active)
same,IC50,[8],> 66 µM (inactive)
same,IC50,[9],52.4 µM (inactive)
N#CC(C#N)c1c(Cl)cnn(Cc2cccc3ccccc23)c1=O,IC50,[10],17.4 µM (inactive)
same,IC50,[11],17.4 µM (inactive)
CCN1CCN(c2ccc(NC(=O)c3cc4ccccc4cc3OC)cc2C)CC1,IC50,[12],4.24 µM (active)
same,IC50,[13],6.67 µM (active)
same,AC50,[14],36.5 µM (active)
same,AC50,[15],52.2 µM (active)
same,AC50,[16],18.2 µM (active)
NC(=O)c1cc2ccc(O)cc2o/c1=N\c1ccccc1,IC50,[17],6.71 µM (active)
CCOC(=O)CCCCC(=O)c1[nH]c(O)nc1CN1CCOCC1,IC50,[18],0.548 µM (active)
